Measurements reported in patent US7166589B2, “Quinoline derivatives” (Hoffmann-La Roche Inc., priority 2001, dated 2007).

Molecular target: T1, mouse NPY5-receptor (mNPY5) (Mus musculus, UniProt O70342)
T1 construct: The full-length cDNA encoding the mouse NPY5 (mNPY5) receptor was amplified from mouse brain cDNA; expressed in transfected cells
T1 sequence (O70342 1-466): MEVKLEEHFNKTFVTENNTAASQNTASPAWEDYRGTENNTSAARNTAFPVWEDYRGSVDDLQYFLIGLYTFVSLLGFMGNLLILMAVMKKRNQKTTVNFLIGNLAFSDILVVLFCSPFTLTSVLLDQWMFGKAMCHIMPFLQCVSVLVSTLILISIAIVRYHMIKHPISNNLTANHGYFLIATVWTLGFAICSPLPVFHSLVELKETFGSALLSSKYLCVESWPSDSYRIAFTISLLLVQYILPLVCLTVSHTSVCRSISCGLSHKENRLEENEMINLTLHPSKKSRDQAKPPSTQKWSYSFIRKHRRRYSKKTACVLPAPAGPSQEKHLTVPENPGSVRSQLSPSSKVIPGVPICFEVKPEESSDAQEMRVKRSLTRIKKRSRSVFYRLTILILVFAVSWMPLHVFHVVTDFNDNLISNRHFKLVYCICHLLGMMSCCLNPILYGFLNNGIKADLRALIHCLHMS
Experiment: Radioligand competition binding, [125I]PYY, membranes of HEK293 cells expressing recombinant mouse NPY5 receptor
Settings: 100 pM [125I]labelled peptide YY, 1 h at 22° C.
Text: The full-length cDNA encoding the mouse NPY5 (mNPY5) receptor was amplified from mouse brain cDNA using specific primers, designed based on the published sequence, and Pfu DNA-Polymerase (Stratagene). The amplification product was subcloned into the mammalian expression vector pcDNA3 using Eco RI and XhoI restriction sites. Positive clones were sequenced and one clone, encoding the published sequence was selected for generation of stable cell clones.
Human embryonic kidney 293 (HEK293) cells were transfected with 10 μg mNPY5 DNA using the lipofectamine reagent (Gibco BRL) according to the manufacturer's instruction. Two days after transfection, geneticin selection (1 mg/ml) was initiated and several stable clones were isolated. One clone was further used for pharmacological characterization.
Human embryonic kidney 293 cells (HEK293), expressing recombinant mouse NPY5-receptor (mNPY5) were broken by three freeze/thawing cycles in hypotonic Tris buffer (5 mM, pH 7.4, 1 mM MgCl2), homogenized and centrifuged at 72,000×g for 15 min. The pellet was washed twice with 75 mM Tris buffer, pH 7.4, containing 25 mM MgCl2 and 250 mM sucrose, 0.1 mM phenylmethylsulfonylfluoride and 0.1 mM 1,10-pheneanthrolin, resuspended in the same buffer and stored in aliquots at −80° C. Protein was determined according to the method of Lowry using bovine serum albumine (BSA) as a standard.

| SMILES | IC50 |
| --- | --- |
| Cc1cc(N2CCCC2)c2ccc(COc3ccc(C#N)cc3)cc2n1 [Example 5, 4-(2-Methyl-4-pyrrolidin-1-yl-quinolin-7-ylmethoxy)-benzonitrile] | 22 nM |
| Cc1cc(N2CCCC2)c2ccc(CNc3ccc(C#N)cc3)cc2n1 [Example 13, 4-[(2-Methyl-4-pyrrolidin-1-yl-quinolin-7-ylmethyl)-amino]-benzonitrile] | 130 nM |
